16 molecules from patent publication US20240390340A1 (INCYTE CORPORATION, priority 2023, published 2024) can be followed below.

Data set [1] deals with KRAS G12D (Homo sapiens, UniProt P01116, G12D). The data set can be described thus: GDP-GTP exchange assay (bodipy-GDP/GppNHp, SOS1), KRAS G12D. In kind it is biochemical.
Data set [2] has as its target KRAS G12V (Homo sapiens, UniProt P01116, G12V). Description: GDP-GTP exchange assay (bodipy-GDP/GppNHp, SOS1), KRAS G12V. Format: biochemical.
The test system of data set [3] is Caco-2 cells. The data set can be described thus: Caco2 assay (Papp A-B). Format: in vitro ADME. Conditions: test compound 50 μM, 120 min, 37° C. The method in brief:
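Caco-2 monolayers grown 22–25 days on Transwells (TEER 300 Ω·cm^2) were dosed apically with 50 μM compound in HBSS; basolateral receiver held HBSS with 4% BSA. Incubation 120 min at 37° C, 5% CO2; donor and receiver samples quantified by LCMS and Papp A-B calculated from receiver-side cumulative flux slope.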

Where [4] appears, read: Table H, column G12D, for compounds isolated as several atropisomers/diastereoisomers the value for the most potent isomer is quoted, read-out: KRAS G12D exchange assay IC50.
The mark [5] stands for this setting: Table H, column G12V, for compounds isolated as several atropisomers/diastereoisomers the value for the most potent isomer is quoted, read-out: KRAS G12V exchange assay IC50.
[6] abbreviates: bodipy-loaded KRAS G12D 2.5 nM, 4 h pre-incubation, value for the most potent isomer quoted for certain compounds, read-out: G12D (KRAS G12D exchange assay IC50).
[7] abbreviates: KRAS G12V mutant, value for the most potent isomer quoted for certain compounds, read-out: G12V (KRAS G12V exchange assay IC50).

SMILES strings stand for the structures. pIC50: −log10 of the molar value. Read-outs that look alike come from different tables or passages of the source.

KRAS G12D, sequence (P01116 1-188 isoform P01116-2 G12D): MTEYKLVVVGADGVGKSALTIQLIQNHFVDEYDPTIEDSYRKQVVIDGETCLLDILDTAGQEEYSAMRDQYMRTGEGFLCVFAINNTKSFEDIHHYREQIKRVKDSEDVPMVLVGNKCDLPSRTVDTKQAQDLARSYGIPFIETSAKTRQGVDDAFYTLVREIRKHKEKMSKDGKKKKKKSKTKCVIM
KRAS G12V, sequence (P01116 1-188 isoform P01116-2 G12V): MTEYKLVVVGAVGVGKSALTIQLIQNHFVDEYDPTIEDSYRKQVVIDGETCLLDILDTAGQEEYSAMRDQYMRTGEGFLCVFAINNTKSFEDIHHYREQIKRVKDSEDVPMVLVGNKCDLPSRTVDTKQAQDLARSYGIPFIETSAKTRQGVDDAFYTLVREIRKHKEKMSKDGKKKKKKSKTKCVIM

`C[C@@H](O)c1nc2c(F)c(-c3cccc(Cl)c3Cl)c(CCC#N)cc2c2c1cc([C@H]1C[C@H](Oc3cc(C4CC4)on3)CN1C(=O)C1CC1)n2[C@H]1[C@H]2CN[C@@H]1C2` [Example 77, 3-(1-((1R,4R,5S)-2-Azabicyclo[2.1.1]hexan-5-yl)-2-((2R,4S)-1-(cyclopropanecarbonyl)-4-((5-cyclopropylisoxazol-3-yl)oxy)pyrrolidin-2-yl)-7-(2,3-dichlorophenyl)-6-fluoro-4-((R)-1-hydroxyethyl)-1H-pyrrolo[3,2-c]quinolin-8-yl)propanenitrile]: the pIC50 in data set [1] (setting [4]) and in data set [2] (setting [5]) was at least 7.00 each time. The Caco-2 result in data set [3] is on record as “+ (a Caco-2 value of ≤0.5)”.
As for `Cc1nc2c(F)c(-c3cccc(Cl)c3Cl)c(CCC#N)cc2c2c1cc([C@H]1C[C@H](n3cc(C4CCCCC4)nn3)CN1C(=O)C1CC1)n2[C@H]1[C@H]2CN[C@@H]1C2` [Example 69, 3-(1-((1R,4R,5S)-2-Azabicyclo[2.1.1]hexan-5-yl)-2-((2R,4S)-4-(4-cyclohexyl-1H-1,2,3-triazol-1-yl)-1-(cyclopropanecarbonyl)pyrrolidin-2-yl)-7-(2,3-dichlorophenyl)-6-fluoro-4-methyl-1H-pyrrolo[3,2-c]quinolin-8-yl)propanenitrile], the pIC50 in data set [1] (setting [4]) and in data set [2] (setting [5]) was at least 7.00 each time. Besides, the Caco-2 result in data set [3] is listed as “+ (a Caco-2 value of ≤0.5)”.
As for `Cc1nc2c(F)c(-c3cccc(Cl)c3Cl)c(CCC#N)cc2c2c1cc([C@H]1C[C@H](n3cc(C45CC(C4)C5)nn3)CN1C(=O)C1CC1)n2[C@H]1[C@H]2CN[C@@H]1C2` [Example 68, 3-(2-((2R,4S)-4-(4-(Bicyclo[1.1.1]pentan-1-yl)-1H-1,2,3-triazol-1-yl)-1-(cyclopropanecarbonyl)pyrrolidin-2-yl)-1-((1R,4R,5S)-2-azabicyclo[2.1.1]hexan-5-yl)-7-(2,3-dichlorophenyl)-6-fluoro-4-methyl-1H-pyrrolo[3,2-c]quinolin-8-yl)propanenitrile], the pIC50 in data set [1] (setting [4]) and in data set [2] (setting [5]) was at least 7.00 each time. For the same molecule, in data set [3], the Caco-2 entry is on record as “+ (a Caco-2 value of ≤0.5)”.
Take `Cc1nc2c(F)c(-c3cccc(Cl)c3Cl)c(CCC#N)cc2c2c1cc([C@H]1C[C@H](Oc3ccc(C#N)cn3)CN1C(=O)C1CC1)n2[C@H]1[C@H]2CN[C@@H]1C2` [Example 60, 6-(((3S,5R)-5-(1-((1R,4R,5S)-2-Azabicyclo[2.1.1]hexan-5-yl)-8-(2-cyanoethyl)-7-(2,3-dichlorophenyl)-6-fluoro-4-methyl-1H-pyrrolo[3,2-c]quinolin-2-yl)-1-(cyclopropanecarbonyl)pyrrolidin-3-yl)oxy)nicotinonitrile]: the pIC50 in data set [1] (setting [4]) and in data set [2] (setting [5]) was at least 7.00 each time. Further, the Caco-2 entry in data set [3] is “+ (a Caco-2 value of ≤0.5)”.
With `CC(O)c1nc2c(F)c(-c3cccc(Cl)c3Cl)c(CCC#N)cc2c2c1cc([C@H]1C[C@H](OCc3ccc(F)cc3C#N)CN1C(=O)C1(C)CC1)n2[C@H]1[C@H]2CN[C@@H]1C2` (stereo partly drawn) [Example 35, 2-((((3S,5R)-5-(1-((1R,4R,5S)-2-Azabicyclo[2.1.1]hexan-5-yl)-8-(2-cyanoethyl)-7-(2,3-dichlorophenyl)-6-fluoro-4-(1-hydroxyethyl)-1H-pyrrolo[3,2-c]quinolin-2-yl)-1-(1-methylcyclopropane-1-carbonyl)pyrrolidin-3-yl)oxy)methyl)-5-fluorobenzonitrile], the pIC50 in data set [1] (setting [4]) and in data set [2] (setting [5]) was at least 7.00 each time. For the same molecule, the Caco-2 entry in data set [3] is reported as “++ (a Caco-2 value of >0.5 but ≤1)”.
In the case of `Cc1nonc1CO[C@H]1C[C@H](c2cc3c(C)nc4c(F)c(-c5cccc(Cl)c5Cl)c(CCC#N)cc4c3n2[C@H]2[C@H]3CN[C@@H]2C3)N(C(=O)C2CC2)C1` [Example 33], the pIC50 in data set [1] (setting [4]) and in data set [2] (setting [5]) was at least 7.00 throughout. Besides, the Caco-2 entry in data set [3] is reported as “+ (a Caco-2 value of ≤0.5)”.
With `C[C@@H]1[C@@H](Oc2c(F)ccnc2Cl)C[C@H](c2cc3c([C@@H](C)O)nc4c(F)c(-c5cccc(Cl)c5Cl)c(CCC#N)cc4c3n2[C@H]2[C@H]3CN[C@@H]2C3)N1C(=O)C1CC1` [Example 64, 3-(1-((1R,4R,5S)-2-Azabicyclo[2.1.1]hexan-5-yl)-2-((2R,4S,5R)-4-((2-chloro-4-fluoropyridin-3-yl)oxy)-1-(cyclopropanecarbonyl)-5-methylpyrrolidin-2-yl)-7-(2,3-dichlorophenyl)-6-fluoro-4-((R)-1-hydroxyethyl)-1H-pyrrolo[3,2-c]quinolin-8-yl)propanenitrile], the pIC50 in data set [1] (setting [4]) and in data set [2] (setting [5]) was at least 7.00 throughout. In addition, the Caco-2 entry in data set [3] is recorded as “+++ (a Caco-2 value of >1)”.
For `COC[C@@H]1[C@@H](Oc2cc(OC)ncc2F)C[C@H](c2cc3c([C@@H](C)O)nc4c(F)c(-c5cccc(Cl)c5Cl)c(CCC#N)cc4c3n2[C@H]2[C@H]3CN[C@@H]2C3)N1C(=O)C1CC1` [Example 83], the pIC50 in data set [1] (setting [6]) and in data set [2] (setting [7]) was at least 7.00 throughout. The Caco-2 entry in data set [3] was “++ (a Caco-2 value of >0.5 but ≤1)”.
As to `Cc1ccccc1CO[C@H]1C[C@H](c2cc3c(C)nc4c(F)c(-c5cccc(Cl)c5Cl)c(CCC#N)cc4c3n2[C@H]2[C@H]3CN[C@@H]2C3)N(C(=O)C2CC2)C1` [Example 21], the negative-log IC50 (pIC50) in data set [1] (setting [4]) and in data set [2] (setting [5]) was at least 7.00 in each case. Moreover, in data set [3], the Caco-2 entry is given as “+ (a Caco-2 value of ≤0.5)”.
Regarding `CC(O)c1nc2c(F)c(-c3cccc(Cl)c3Cl)c(CCC#N)cc2c2c1cc([C@H]1C[C@H](OCc3c(F)cccc3F)CN1C(=O)C1CC1)n2[C@H]1[C@H]2CN[C@@H]1C2` (stereo partly drawn) [Example 34], the pIC50 in data set [1] (setting [4]) and in data set [2] (setting [5]) was at least 7.00 in each case. Besides, in data set [3], the Caco-2 result was “+ (a Caco-2 value of ≤0.5)”.
With `Cc1nc2c(F)c(-c3cccc(Cl)c3Cl)c(CCC#N)cc2c2c1cc([C@H]1C[C@](C)(OCc3ccccc3)CN1C(=O)C1CC1)n2[C@H]1[C@H]2CN[C@@H]1C2` [Example 81, 3-(2-((2R,4S)-4-(Benzyloxy)-1-(cyclopropanecarbonyl)-4-methylpyrrolidin-2-yl)-1-((1R,4R,5S)-2-azabicyclo[2.1.1]hexan-5-yl)-7-(2,3-dichlorophenyl)-6-fluoro-4-methyl-1H-pyrrolo[3,2-c]quinolin-8-yl)propanenitrile], the pIC50 in data set [1] (setting [6]) and in data set [2] (setting [7]) was at least 7.00 each time. For the same molecule, the Caco-2 result in data set [3] was “+++ (a Caco-2 value of >1)”.
Take `Cc1nc2c(F)c(-c3cccc(Cl)c3Cl)c(CCC#N)cc2c2c1cc([C@H]1C[C@H](n3cc(C(C)(C)C)nn3)CN1C(=O)C1CC1)n2[C@H]1[C@H]2CN[C@@H]1C2` [Example 4, 3-(1-((1R,4R,5S)-2-Azabicyclo[2.1.1]hexan-5-yl)-2-((2R,4S)-4-(4-(tert-butyl)-1H-1,2,3-triazol-1-yl)-1-(cyclopropanecarbonyl)pyrrolidin-2-yl)-7-(2,3-dichlorophenyl)-6-fluoro-4-methyl-1H-pyrrolo[3,2-c]quinolin-8-yl)propanenitrile]: the pIC50 in data set [1] (setting [4]) and in data set [2] (setting [5]) was at least 7.00 throughout. In addition, in data set [3], the Caco-2 result was “+++ (a Caco-2 value of >1)”.
As for `Cc1nc2c(F)c(-c3cccc(Cl)c3Cl)c(CCC#N)cc2c2c1cc([C@H]1C[C@H](Oc3ccc(N(C)C)nc3)CN1C(=O)C1CC1)n2[C@H]1[C@H]2CN[C@@H]1C2` [Example 38, 3-(1-((1R,4R,5S)-2-Azabicyclo[2.1.1]hexan-5-yl)-2-((2R,4S)-1-(cyclopropanecarbonyl)-4-((6-(dimethylamino)pyridin-3-yl)oxy)pyrrolidin-2-yl)-7-(2,3-dichlorophenyl)-6-fluoro-4-methyl-1H-pyrrolo[3,2-c]quinolin-8-yl)propanenitrile], the pIC50 in data set [1] (setting [4]) and in data set [2] (setting [5]) was at least 7.00 throughout. Besides, in data set [3], the Caco-2 result is given as “++ (a Caco-2 value of >0.5 but ≤1)”.
Take `Cc1nc2c(F)c(-c3cccc(Cl)c3Cl)c(CCC#N)cc2c2c1cc([C@H]1C[C@H](OCc3nccs3)C3(CC3)N1C(=O)C1CC1)n2[C@H]1[C@H]2CN[C@@H]1C2` [Example 31]: the pIC50 in data set [1] (setting [4]) and in data set [2] (setting [5]) was at least 7.00 throughout. Moreover, the Caco-2 result in data set [3] was “+ (a Caco-2 value of ≤0.5)”.
On to `Cc1nc2c(F)c(-c3cccc(Cl)c3Cl)c(CCC#N)cc2c2c1cc([C@H]1C[C@H](OCc3ccsn3)CN1C(=O)C1CC1)n2[C@H]1[C@H]2CN[C@@H]1C2` [Example 14], for which the pIC50 in data set [1] (setting [4]) and in data set [2] (setting [5]) was at least 7.00 in each case. The Caco-2 result in data set [3] is “+ (a Caco-2 value of ≤0.5)”.
As for `COc1nccc(O[C@H]2C[C@H](c3cc4c([C@@H](C)O)nc5c(F)c(-c6cccc(Cl)c6Cl)c(CCC#N)cc5c4n3[C@H]3[C@H]4CN[C@@H]3C4)N(C(=O)C3CC3)C2)c1F` [Example 53, 3-(1-((1R,4R,5S)-2-Azabicyclo[2.1.1]hexan-5-yl)-2-((2R,4S)-1-(cyclopropanecarbonyl)-4-((3-fluoro-2-methoxypyridin-4-yl)oxy)pyrrolidin-2-yl)-7-(2,3-dichlorophenyl)-6-fluoro-4-((R)-1-hydroxyethyl)-1H-pyrrolo[3,2-c]quinolin-8-yl)propanenitrile], the pIC50 in data set [1] (setting [4]) and in data set [2] (setting [5]) was at least 7.00 each time. In addition, in data set [3], the Caco-2 result is recorded as “++ (a Caco-2 value of >0.5 but ≤1)”.
